Drawing on patent publication US9029377B2, “Platelet-activating factor receptor antagonists” (Merck Sharp & Dohme Corp., priority 2009, dated 2015), this text covers IC50 for 31 molecules.

Broadly, the IC50 is the point on the concentration scale where inhibition reaches its midpoint. A high value points to lower potency.

The target in the assay is PAFR (Homo sapiens, UniProt P25105). Description: PAF Binding Assay (PAFR binding).
Chain of PAFR (P25105 whole entry): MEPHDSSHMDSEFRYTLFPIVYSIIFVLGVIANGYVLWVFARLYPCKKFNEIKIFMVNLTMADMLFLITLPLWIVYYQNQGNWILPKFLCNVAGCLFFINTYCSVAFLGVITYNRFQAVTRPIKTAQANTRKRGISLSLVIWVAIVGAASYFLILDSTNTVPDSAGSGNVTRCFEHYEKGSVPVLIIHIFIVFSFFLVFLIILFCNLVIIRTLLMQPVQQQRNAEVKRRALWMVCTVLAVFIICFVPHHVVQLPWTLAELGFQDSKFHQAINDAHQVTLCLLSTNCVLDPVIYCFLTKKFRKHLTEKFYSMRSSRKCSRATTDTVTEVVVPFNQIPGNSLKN

`O=S(=O)(N[C@H]1CCC[C@@H](n2cnnc2)C1)c1cc(-c2cccnc2O)cc(C(F)(F)F)c1` [Compound 3Aj, 3-(2-hydroxypyridin-3-yl)-N-[(1S,3R)-3-(4H-1,2,4-triazol-4-yl)cyclohexyl]-5-(trifluoromethyl)benzenesulfonamide] came in with an IC50 of 12 nM. This lies in the double-digit nanomolar range.

As for `O=S(=O)(N[C@H]1CCC[C@@H](n2cnnc2)C1)c1cc(F)cc(-c2cccc3cccnc23)c1` [Compound 3Fc, 3-fluoro-5-quinolin-8-yl-N-[(1S,3R)-3-(4H-1,2,4-triazol-4-yl)cyclohexyl]benzenesulfonamide], the IC50 stood at 1 nM.

`O=S(=O)(N[C@H]1CCC[C@@H](n2cnnc2)C1)c1cc(-c2cccnc2)cc(C(F)(F)F)c1` [Compound 3Ar, 3-pyridin-3-yl-N-[(1S,3R)-3-(4H-1,2,4-triazol-4-yl)cyclohexyl]-5-(trifluoromethyl)benzenesulfonamide]: the 50% inhibitory concentration (IC50) came out at 32 nM. This IC50 lies about 32-fold higher than the previous one. `CCc1cc(-c2ccccc2OC(F)(F)F)ccc1S(=O)(=O)N[C@H]1CCC[C@@H](n2cnnc2)C1` [Compound 2Aaa, 3-ethyl-N-[(1S,3R)-3-(4H-1,2,4-triazol-4-yl)cyclohexyl]2′-(trifluoromethoxy)biphenyl-4-sulfonamide] showed an IC50 of 44 nM.

`Cc1nncn1[C@H]1C[C@@H](NS(=O)(=O)c2ccc(-c3noc(C4CC4)n3)cc2C2CC2)CC(F)(F)C1` [Compound 2Lj, 2-cyclopropyl-4-(5-cyclopropyl-1,2,4-oxadiazol-3-yl)-N-[(1R,5S)-3,3-difluoro-5-(3-methyl-4H-1,2,4-triazol-4-yl)cyclohexyl]benzenesulfonamide] had an IC50 of 1.3 nM.

For `Cc1nnc(C)n1[C@@H]1CCC[C@H](NS(=O)(=O)c2c(C(C)C)cc(C(C)C)cc2C(C)C)C1` [Compound 7d, N-[(1S,3R)-3-(3,5-dimethyl-4H-1,2,4-triazol-4-yl)cyclohexyl]-2,4,6-triisopropylbenzenesulfonamide], the concentration for half-maximal inhibition (IC50) is 9.8 nM. In turn, `CCc1cc(-c2nccs2)ccc1S(=O)(=O)N[C@H]1CCC[C@@H](n2cnnc2)C1` [Compound 2Aaw, 2-ethyl-4-(1,3-thiazol-2-yl)-N-[(1S,3R)-3-(4H-1,2,4-triazol-4-yl)cyclohexyl]benzenesulfonamide] yielded an IC50 of 45 nM. With `O=S(=O)(N[C@H]1CCC[C@@H](n2cnnc2)C1)c1cc(-c2ccc3nc(C(F)(F)F)cn3n2)cc(C(F)(F)F)c1` [Compound 3Aaj, N-[(1S,3R)-3-(4H-1,2,4-triazol-4-yl)cyclohexyl]-3-(trifluoromethyl)-5-[2-(trifluoromethyl)imidazo[1,2-b]pyridazin-6-yl]benzenesulfonamide], the IC50 was found to be 27 nM. This IC50 is about 1.7-fold lower than that of the molecule before. The figure for `CCc1cc(-c2ccn3nccc3n2)ccc1S(=O)(=O)N[C@H]1CCC[C@@H](n2cnnc2)C1` [Compound 2Aav, 2-ethyl-4-pyrazolo[1,5-a]pyrimidin-5-yl-N-[(1S,3R)-3-(4H-1,2,4-triazol-4-yl)cyclohexyl]benzenesulfonamide] is 9.7 nM; for `CCc1cc(-n2cnnc2C)ccc1S(=O)(=O)N[C@H]1CCC[C@@H](n2cnnc2)C1` [Compound 4b, 2-ethyl-4-(3-methyl-4H-1,2,4-triazol-4-yl)-N-[(1S,3R)-3-(4H-1,2,4-triazol-4-yl)cyclohexyl]benzenesulfonamide] it is 9800 nM; for `Cc1nncn1[C@@H]1CCC[C@H](NS(=O)(=O)c2ccc(-c3noc(C4CC4)n3)cc2F)C1` [Compound 2Ja, 4-(5-cyclopropyl-1,2,4-oxadiazol-3-yl)-2-fluoro-N-[(1S,3R)-3-(3-methyl-4H-1,2,4-triazol-4-yl)cyclohexyl]benzenesulfonamide] it is 22 nM. To `COc1ccc(-c2cc(C(F)(F)F)cc(S(=O)(=O)N[C@H]3CCC[C@@H](n4cnnc4)C3)c2)cn1` [Compound 3Af, 3-(6-methoxypyridin-3-yl)-N-[(1S,3R)-3-(4H-1,2,4-triazol-4-yl)cyclohexyl]-5-(trifluoromethyl)benzenesulfonamide] belongs 4.2 nM; to `CCc1cc(-c2noc(C3CC3)n2)ccc1S(=O)(=O)N[C@H]1CCC[C@@H](n2cnnc2C2CC2)C1` [Compound 2Ab, 4-(5-cyclopropyl-1,2,4-oxadiazol-3-yl)-2-ethyl-N-[(1S,3R)-3-(3-cycloropyl-4H-1,2,4-triazol-4-yl)cyclohexyl]benzenesulfonamide], 3.2 nM. `Cc1nncn1[C@@H]1CCC[C@H](NS(=O)(=O)c2ccc(-n3nccc3C3CC3)cc2)C1` [Compound 2Nr, 4-(5-cyclopropyl-1H-pyrazol-1-yl)-N-[(1S,3R)-3-(3-methyl-4H-1,2,4-triazol-4-yl)cyclohexyl]benzenesulfonamide] gave a half-maximal inhibitory concentration (IC50) of 56 nM. To `CCc1cc(-c2cnc3ccnn3c2)ccc1S(=O)(=O)N[C@H]1CCC[C@@H](n2cnnc2)C1` [Compound 2Aau, 2-ethyl-4-pyrazolo[1,5-a]pyrimidin-6-yl-N-[(1S,3R)-3-(4H-1,2,4-triazol-4-yl)cyclohexyl]benzenesulfonamide] belongs 244 nM; to `CCc1cc(-c2ccc(OC)c(F)c2)ccc1S(=O)(=O)N[C@H]1CCC[C@@H](n2cnnc2)C1` [Compound 2At, 3-ethyl-3′-fluoro-4′-methoxy-N-[(1S,3R)-3-(4H-1,2,4-triazol-4-yl)cyclohexyl]biphenyl-4-sulfonamide], 39 nM. To `O=S(=O)(N[C@H]1CCC[C@@H](n2cnnc2)C1)c1cc(-c2cc(Cl)cn3cc(CCl)nc23)cc(C(F)(F)F)c1` [Compound 3Aav, 3-[6-chloro-2-(chloromethyl)imidazo[1,2-a]pyridin-8-yl]-N-[(1S,3R)-3-(4H-1,2,4-triazol-4-yl)cyclohexyl]-5-(trifluoromethyl)benzenesulfonamide] belongs 22 nM; to `O=S(=O)(N[C@H]1CCC[C@@H](n2cnnc2)C1)c1ccc(-c2noc(C(F)(F)F)n2)cc1C1CC1` [2 Kb, 2-cyclopropyl-N-[(1S,3R)-3-(4H-1,2,4-triazol-4-yl)cyclohexyl]-4-[5-(trifluoromethyl)-1,2,4-oxadiazol-3-yl]benzenesulfonamide], 16 nM. The figure for `CCc1cc(-c2ccc(OC(F)(F)F)cc2C)ccc1S(=O)(=O)N[C@H]1CCC[C@@H](n2cnnc2)C1` [Compound 2Abl, 3-ethyl-2′-methyl-N-[(1S,3R)-3-(4H-1,2,4-triazol-4-yl)cyclohexyl]-4′-(trifluoromethoxy)biphenyl-4-sulfonamide] is 30 nM. The molecule `CCc1cc(-c2ccc(OC)cc2)ccc1S(=O)(=O)N[C@H]1CCC[C@@H](n2cnnc2)C1` [Compound 2Ap, 3-ethyl-4′-methoxy-N-[(1S,3R)-3-(4H-1,2,4-triazol-4-yl)cyclohexyl]biphenyl-4-sulfonamide] displayed an IC50 of 27 nM.

`O=S(=O)(N[C@H]1CCC[C@@H](c2cccnc2)C1)c1ccc(-c2noc(C3CC3)n2)cc1` (relative stereo) [Compound 8e, 4-(5-cyclopropyl-1,2,4-oxadiazol-3-yl)-N-(3-pyridin-cis-3-ylcyclohexyl)benzenesulfonamide] gave an IC50 of 1.9 nM. To `O=S(=O)(N[C@H]1CCC[C@@H](n2cnnc2C2CC2)C1)c1ccc(-c2noc(C3CC(F)(F)C3)n2)cc1OC(F)(F)F` [Compound 2Bd, N-[(1S,3R)-3-(3-cycloropyl-4H-1,2,4-triazol-4-yl)cyclohexyl]-4-[5-(3,3-difluorocyclobutyl)-1,2,4-oxadiazol-3-yl]-2-(trifluoromethoxy)benzenesulfonamide] belongs 6.3 nM; to `Cc1nncn1[C@@H]1CCC[C@H](NS(=O)(=O)c2ccc(-c3noc(C4CCCC4)n3)cc2OC(F)(F)F)C1` [Compound 2Bbh, 4-(5-cyclopentyl-1,2,4-oxadiazol-3-yl)-N-[(1S,3R)-3-(3-methyl-4H-1,2,4-triazol-4-yl)cyclohexyl]-2-(trifluoromethoxy)benzenesulfonamide], 3.8 nM; to `O=S(=O)(N[C@H]1CCC[C@@H](n2cnnc2)C1)c1cccc(-c2ccccc2)c1` [Compound 2Mg, N-[(1S,3R)-3-(4H-1,2,4-triazol-4-yl)cyclohexyl]biphenyl-3-sulfonamide], 30 nM. As for `Cc1nncn1[C@H]1C[C@@H](NS(=O)(=O)c2cc(-c3cccc4cccnc34)cc(C(F)(F)F)c2)CC(F)(F)C1` [Compound 3Ca, N-[(1R,5S)-3,3-difluoro-5-(3-methyl-4H-1,2,4-triazol-4-yl)cyclohexyl]-3-quinolin-8-yl-5-(trifluoromethyl)benzenesulfonamide], the IC50 turned out to be 0.4 nM. “3-bromo-N-[(1S,3R)-3-(4H-1,2,4-triazol-4-yl)cyclohexyl]-5-(trifluoromethyl)benzenesulfonamide [Compound 3b]”: the 50% inhibitory concentration (IC50) is 0.9 nM. To `COc1ncccc1-c1cc(OC(F)(F)F)cc(S(=O)(=O)N[C@H]2CCC[C@@H](n3cnnc3)C2)c1` [Compound 3Eb, 3-(2-methoxypyridin-3-yl)-N-[(1S,3R)-3-(4H-1,2,4-triazol-4-yl)cyclohexyl]-5-(trifluoromethoxy)benzenesulfonamide] belongs 13 nM; to `O=S(=O)(N[C@H]1CCC[C@@H](n2cnnc2)C1)c1cccc(OC(F)(F)F)c1` [Compound 2Mc, N-[(1S,3R)-3-(4H-1,2,4-triazol-4-yl)cyclohexyl]-3-(trifluoromethoxy)benzenesulfonamide], 410 nM; to `CCc1cc(-c2noc(C3CC3)n2)ccc1S(=O)(=O)N[C@H]1CCC[C@@H](n2cnnc2C)C1` [Compound 2Abb, 4-(5-cyclopropyl-1,2,4-oxadiazol-3-yl)-2-ethyl-N-[(1S,3R)-3-(3-methyl-4H-1,2,4-triazol-4-yl)cyclohexyl]benzenesulfonamide], 2 nM. To `Cc1nncn1[C@H]1C[C@@H](NS(=O)(=O)c2ccc(-c3noc(C4CC4)n3)cc2)CC(F)(F)C1` [Compound 2Ql, 4-(5-cyclopropyl-1,2,4-oxadiazol-3-yl)-N-[(1R,5S)-3,3-difluoro-5-(3-methyl-4H-1,2,4-triazol-4-yl)cyclohexyl]benzenesulfonamide] belongs 8.2 nM. Molecule `CCc1cc(-c2noc(C3CC3)n2)ccc1S(=O)(=O)N[C@@H]1C[C@H](n2cnnc2C)CC(F)(F)C1` [Compound 2Cbb, 4-(5-cyclopropyl-1,2,4-oxadiazol-3-yl)-N-[(1R,5S)-3,3-difluoro-5-(3-methyl-4H-1,2,4-triazol-4-yl)cyclohexyl]-2-ethylbenzenesulfonamide] showed an IC50 of 0.8 nM.
